Test results reported in patent US20190345202A1, “ANDROGEN RECEPTOR ANTISENSE OLIGONUCLEOTIDES” (OliPass Corporation, priority 2016, published 2019).

Assays:
[1] = system: 10-mer complementary DNA; experiment: Tm of duplex between PNA and 10-mer complementary DNA (UV/Vis); type: binding; details: 4 μM PNA and 4 μM 10-mer DNA, aqueous buffer pH 7.16, 10 mM sodium phosphate, 100 mM NaCl
Procedure: The PNA derivatives in Table 1 were evaluated for their binding affinity for 10-mer DNAs complementarily targeting either the N-terminal or C-terminal. The binding affinity was assessed by Tm value for the duplex between PNA and 10-mer complementary DNA. The duplex between PNA derivatives in Table 1 and fully complementary DNAs show Tm values too high to be reliably determined in aqueous buffer solution, since the buffer solution tends to boil off during the Tm measurement.
Tm values were determined on an UV/Vis spectrometer as follows. A mixed solution of 4 μM PNA oligomer and 4 μM complementary 10-mer DNA in 4 mL aqueous buffer (pH 7.16, 10 mM sodium phosphate, 100 mM NaCl) in 15 mL polypropylene falcon tube was incubated at 90° C. for a minute and slowly cooled down to ambient temperature over several minutes. Then the solution was transferred into a 3 mL quartz UV cuvette equipped with an air-tight cap, and subjected to a Tm measurement at 260 nm on an Agilent 8453 UV/Visible spectrophotometer or a similar one as described in the prior art [PCT/KR2009/001256] or with minor modifications. The 10-mer complementary DNAs for Tm measurement were purchased from Bioneer (www.bioneer.com, Dajeon, Republic of Korea) and used without further purification.

[2] = system: human AR mRNA; experiment: qPCR (SYBR Green) of AR mRNA level in MCF7 cells; details: 5 hours
[3] = system: full-length AR protein; experiment: Western blot of AR protein in MCF7 cells; type: cell-based, human; details: 100 zM to 300 aM, 48 hours
Procedure: 4 culture dishes were used for 4 negative controls. 48 hours later, cells were washed 2 times with cold PBS, and then subjected to lysis with 200 μL 1× cell lysis buffer (Cat. No. 9803, Cell Signaling Tech) supplemented with 1× protease inhibitor (Cat. No. P8340, Sigma). The lysates were collected in 1.5 ml e-tube. 200 μL of each lysate was mixed with 100 μL 3× sample buffer, and boiled for 5 min at 100 ? . 20 μL of each lysate (12 lysates in total). 4 negative controls and 8 ASO treatment samples) was subjected to electrophoretic separation on a 8% SDS-PAGE gel, and transferred onto a 0.2 μm PVDF membrane. The membrane was probed with anti-AR antibody (Cat. No. 5153, Cell Signaling Tech) and anti-β-actin antibody (Cat. No. sc4778, Santa Cruz). FIG. 10A provides the AR Western blot data obtained therefrom. Multiple (negative) control samples were used to overcome technical artifacts of western blot procedures.

[4] = system: C57BL/6 mice; experiment: Hair growth in C57BL/6 mice upon topical administration (brightness score, hair weight); type: in vivo, mouse; details: for average hair weight: hair growth between Day 0 and Day 21
Procedure: [Hair Removal and Grouping] In Day 0, 7 week old female C57BL/6 mice were anesthetized with zoletil/rompun, and the hair in the back was cut and removed with a clipper and wax, respectively. Mice with flawless (i.e. spotless) hair removal were selected and randomly assigned into three groups (7 animals per group).
[Topical Administration] The topical solutions of “ASO 1” were prepared by diluting a mother stock solution of “ASO 1” to 0.2 fM or 1 fM in aqueous 30% (v/v) ethanol supplemented with 3% (v/v) glycerin. About 100 μL of 0 (negative control), 0.2, or 1 fM “ASO 1” was topically administered in the back of each animal using a cotton ball in Days 3, 7, 10, and 14.
[Digital Image Scoring for Hair Growth] For scoring the hair growth, the animals were anesthetized and photographed by group as shown in FIG. 11A using a digital camera at a fixed value of exposure time and illumination. The digital image for the area of the hair removal for each animal was selected and digitally scored for the average brightness over the selected area using “ImageJ” program. Lower brightness score is taken as faster hair growth. Brightness scores of individual animals were combined by group, and subjected to statistical analysis by student's t-test. FIG. 11B summarizes the relative brightness scores of the ASO treated groups against the control group. The relative brightness score tended to decrease with days in the treatment groups. […] Thus, “ASO 1” was concluded to promote hair growth upon topical administrations at 1 fM.
[Scoring by Hair Weight] In Day 21, the animals were anesthetized and the hair in the back was cut with a clipper. The hair samples from individual animals were combined by group, and weighed to evaluate the hair growth between Day 0 and Day 21. The average hair weight was 70.5 mg/animal for the control group, 90.8 mg/animal for the 0.2 fM treatment group, and 94.4 mg/animal for the 1 fM treatment group. Thus “ASO 1” was concluded to promote hair growth upon topical administrations at 0.2 fM as well as 1 fM.
[Hair Removal and Grouping] In Day 0, 7 week old female C57BL/6 mice were anesthetized with zoletil/rompun, and the hair in the back was cut and removed with a clipper and wax, respectively. Mice with flawless (i.e. spotless) hair removal were selected and randomly assigned into three groups (10 animals per group).
[Topical Administration] The topical solutions of “ASO 5” were prepared by diluting a mother stock solution of “ASO 5” to 1, 5, or 25 fM in aqueous 30% (v/v) ethanol supplemented with 3% (v/v) glycerin. About 100 μL of each ASO solution or vehicle (negative control) was topically administered to in the back of an animal using a cotton ball in Days 3, 7, 10, 14 and 21.
Following the shaving in Day 21, the animals received a single topical administration of either vehicle or “ASO 5” at 1 fM, 5 fM, or 25 fM. In Day 53, the hair in the back was collected by shaving with a clipper to determine the total amount of hair growth between Days 21 and 53. The average hair weights of the 1 fM, 5 fM, and 25 fM groups were 1,630%, 1,450%, and 771% of the non-treated group, respectively. Thus “ASO 5” was concluded to promote hair growth upon topical administrations at 1 to 25 fM.
[Hair Removal and Grouping] In Day 0, 7 week old female C57BL/6 mice were anesthetized with zoletil/rompun, and the hair in the back was cut and removed with a clipper and wax, respectively. Mice with flawless (i.e. spotless) hair removal were selected and randomly assigned into three groups (9 animals per group).
[Topical Administration] The topical solutions of “ASO 10” were prepared by diluting a mother stock solution of “ASO 10” to 1, 5, or 25 fM in aqueous 30% (v/v) ethanol supplemented with 3% (v/v) glycerin. About 100 μL of each ASO solution or vehicle (negative control) was topically administered to in the back of an animal using a cotton ball in Day 2.

[5] = system: androgen receptor; experiment: AR IHC of skin samples after topical administration in mice; type: in vivo, mouse; details: topical 0.2 fM or 1 fM, skin sampled Day 24
From the text: [AR IHC of Skin Sample] Following the shaving in Day 21, the mice received a single topical administration of either vehicle or “ASO 1” according to the group. In Day 24, the skin of the area with hair removal was sampled for immunohistochemistry (IHC) analysis against androgen receptor. The skin samples were cryo-sectioned and subjected to immunostaining in series with a primary anti-AR antibody (Cat. No. sc-816, Santa Cruz) at 1:100 dilution, with a secondary anti-IgG (Cat No. BA-1100, Vector) at 1:200 dilution, and then with Dylight 594-steptavidin (Cat No. SA-5594, Vector, Calif., USA) at 1:200 dilution for red fluoresence tagging. The IHC images were captured on an Olympus fluorescence microscope for changes in the AR expression level upon topical treatment with “ASO 1”.
[AR Immunohistochemistry of Skin Samples] After the hair cut in Day 27, The animals topically received further either vehicle or “ASO 10” at 1, 5, or 25 fM in Days 27 and 29. Skin samples of the back were collected in Day 30 for immunohistochemical analysis against androgen receptor. The skin samples were subjected to immunostaining against androgen receptor as described in “Example 7”. IHC images were captured on a Zeiss slide scanner. FIG. 14B is a representative set of AR IHC images. […] It would be difficult to clearly state that the AR expression in hair follicles decreased in the treatment groups due to the marked increases in the number of hair follicles in the treatment groups.

Row | Substance | Tm Value, 10-mer DNA against C-Terminal [1] | Tm Value, 10-mer DNA against N-Terminal [1] | exon message levels (exons 4-6) relative to negative control ([2]; 1 aM) | decrease of exon message levels (exons 4-6) ([2]; 100 zM) | AR band intensity vs lysates without ASO treatment [3] | average hair weight ([4]; 0.2 fM topical) | average hair weight ([4]; 1 fM topical) | brightness score vs non-treated group ([4]; Day 13, 1 fM topical in Days 3, 7, 10, 14, lower brightness = faster hair growth) | AR expression in hair follicles (IHC) [5] | AR expression in the muscle layer underneath the dermis (IHC) [5]
1 | Fethoc-C(1O2)TT-A(6)CC-A(6)GG(6)-CA(6)A-NH2 (antisense CTTACCAGGCAA; N-Fethoc, C-terminal amide, chemistry not fully specified) [ASO 13] | 87.0 °C | 83.0 °C | – | – | – | – | – | – | – | –
2 | Fethoc-GA(5)T-AC(1O2)C-A(5)GG(6)-CAA(5)-G-NH2 (antisense GATACCAGGCAAG; N-Fethoc, C-terminal amide, chemistry not fully specified) [ASO 8] | 86.0 °C | 87.4 °C | – | – | – | – | – | – | – | –
3 | Fethoc-TA(5)C-CAG(6)-GC(1O2)A-A(5)GG(6)-C—NH2 (antisense TACCAGGCAAGGC; chemistry not fully specified) [ASO 9] | 84.5 °C | 84.3 °C | – | – | – | – | – | – | – | –
4 | Fmoc-GA(5)A-GC(1O2)C-A(5)GG-C(1O2)AA(5)-G-NH2 (antisense GAAGCCAGGCAAG; N-Fmoc, C-terminal amide, chemistry not fully specified) [ASO 1] | – | – | ~60 % of the negative control | more than 80% | considerably weaker | 90.8 mg/animal | 94.4 mg/animal | significantly lower | markedly inhibited | decreased
